The source of these data is US20040208924A1, “Pharmaceutical tablet having a high api content” (priority 2001, published 2004).

The nature of series [1]: Compactability (slope of tensile strength versus compression pressure) of API blend compressed on an Instron. It counts as physicochemical. Here is the method:
In order to evaluate the compressibility and compactability of all API lots generated by modifying the crystallization process, a blend of 80% API, 19.5% microcrystalline cellulose and 0.5% magnesium stearate was prepared by mixing in a tumble mixer for 5 minutes. Each mixture was then compressed on an Instron (Universal Stress-Strain Analyzer) using a 0.5 inch diameter tooling (upper and lower punches and die) at a speed of 100 mm/min at compression forces of 5, 10, 15, 20 and 25 kN each for a replicate of three tablets. The tablet dimensions were measured using a digital Vernier calliper and the strength of the tablets were determined using an Erweka hardness tester. The volume of the tablet can be calculated from the tablet dimensions normalized for the true density of the mixture being compressed. The compressibility curves are generated by plotting the solid fraction of the tablet generated at each compression pressure versus the respective compression pressure. The area under such a curve represents the extent of volume reduction. The force required to break the tablets is normalized for the area of the tablet to obtain the tensile strength value. Slopes for profiles of tensile strength versus the compression pressure represent the compactability of the material while the area under the curve of tensile strength versus the solid fraction of the tablets represents the extent of compaction or toughness of the material.

A further series relates to matrix metalloproteinase. The conditions noted are these: statement referring to WO 97/12902 and U.S. Pat. No. 5,981,490; cited from earlier work.
The nature of series [2]: Solid state stability of crystal forms. It counts as physicochemical. The note with it: out of four crystal structures (forms 4, 5, 6, 7). The source says:
Due to the unique structure of the API material at least four different groups of crystal structures were observed (forms 4, 5, 6, 7) and analyzed by single crystal x-ray. […] Orthorhombic Form 6 consisted of a group of isostructural (1:1) solvates which accommodates solvents such as EtOAc, acetone and MEK. […] An exhaustive study of API crystallization on the feasibility of various solvents, control of polymorphs, and robustness of process concluded that the selected form could be consistently produced and kept stable in iPrOAc (or BuOAc)/Heptane (or Cyclohexane), following which a reproducible crystallization procedure in the iPrOAc/heptane solvent system was developed and implemented. This procedure, associated with the aminolysis of penultimate compound (Chemical Abstracts Systematic Name, (αS)-α-(Benzoylthio)-3,4,4-trimethyl-2,5-dioxo-1-imidazolidinebutanoyl-L-leucyl-N,3-dimethyl-L-valinamide), is successful in purging undesirable side products/impurities such as α,α′-Dithiobis[N-[1-[[[2,2-dimethyl-1-[(methylamino)carbonyl]propyl]amino]-carbonyl]-3-methylbutyl]-3,4,4-trimethyl-2,5-dioxo-1-imidazolidinebutanamide] which is the S,S′-dimer of the API. The crystallization procedure is further described in Table 1.

`CNC(=O)[C@@H](NC(=O)[C@H](CC(C)C)NC(=O)[C@@H](S)CCN1C(=O)N(C)C(C)(C)C1=O)C(C)(C)C` [API, N-[(2S)-2-Mercapto-1-oxo-4-(3,4,4-trimethyl-2,5-dioxo-1-imidazolidinyl)butyl]-L-leucyl-N,3-dimethyl-L-valinamide]: the product compactability worked out at 4.2 kPa/MPa in series [1] (50-g sample recrystallized using 1% AirJet-milled seeds), 5.9 Kpa/MPa in series [1] (50-g sample recrystallized using 1% ball-milled seeds) and 5.3 kPa/MPa in series [1] (50-g sample recrystallized using 1% seeds crystallized from a ground seeded batch). Also, in series [1] (crystallized with 1% ground seeds, without sonication), the compactability was 10.5 kPa/MPa. Further, the matrix metalloproteinase inhibition entry in the series on matrix metalloproteinase is “effective matrix metalloproteinase inhibitor”.

Consider `CNC(=O)[C@@H](NC(=O)[C@H](CC(C)C)NC(=O)[C@@H](S)CCN1C(=O)N(C)C(C)(C)C1=O)C(C)(C)C` [Form 4, N-[(2S)-2-Mercapto-1-oxo-4-(3,4,4-trimethyl-2,5-dioxo-1-imidazolidinyl)butyl]-L-leucyl-N,3-dimethyl-L-valinamide], for which the “stability of the crystal structure in the solid state” value in series [2] is recorded as “did not transform/decompose to other crystalline structures in the solid state”.
